According to patent publication US8686044B2, “Amide derivative, pest control agent containing the amide derivative, and use of the amide derivative” (Mitsui Chemicals Agro, Inc., priority 2008, dated 2014):

Key:
Format in all cases: in vivo
Plutella xylostella = assay: Pesticidal test against Plutella xylostella (cabbage leaf dip); settings: foliar, 144 h, 2-stage larvae, examined after 6 days, 25° C., read-out: pesticidal rate; for pest or weed control at 1 ppm: concentration 1 ppm; for pest or weed control at 10 ppm: concentration 10 ppm
Procedure, shortened: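 Second-stage larvae (5 per group, two replicates) were released onto air-dried cabbage leaf discs that had been immersed for 30 seconds in compound solution at a set concentration. Mortality was scored after 6 days at 25° C.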

Musca domestica = assay: Pesticidal test against Musca domestica (petri dish dry film); settings: 24 h, concentration 100 ppm, female adults, examined after 1 day, 25° C., read-out: pesticidal rate
Procedure: Pesticidal Test against Musca domestica
1 ml of an acetone solution in which a test compound had been prepared at a predetermined concentration was added dropwise to a petri dish having a diameter of 9 cm, and air-dried, and then the female adults of Musca domestica were released and the petri dish was capped. They were left to stand in a thermostatic chamber at 25° C., and the numbers of the living pests and the dead pests were examined after 1 day. The test was carried out with five larvae per group in two replicates.

Spodoptera litura = assay: Pesticidal test against Spodoptera litura (cabbage leaf dip); settings: foliar, 144 h, 2-stage larvae, examined after 6 days, 25° C., read-out: pesticidal rate; for pest or weed control at 10 ppm: concentration 10 ppm; for pest or weed control at 1 ppm: concentration 1 ppm
Procedure, shortened: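 Cabbage leaf pieces dipped 30 seconds in compound solution at a predetermined concentration and air-dried, then offered to second-stage larvae, five per group in two replicates. Held at 25° C. Living and dead larvae counted after 6 days.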

Laodelphax striatellus = assay: Pesticidal test against Laodelphax striatellus (rice seedling spray); settings: 144 h, concentration 100 ppm, 3-stage larvae, examined after 6 days, 25° C., read-out: pesticidal rate
Procedure, shortened: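 Rice seedlings sprayed with 2.5 ml acetone solution of compound at a predetermined concentration, air-dried, then infested with third-stage Laodelphax striatellus larvae in capped water-containing tubes at 25 °C. Living and dead insects counted after 6 days; ten larvae per group, two replicates.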

N#Cc1ccc(C(=O)Nc2c(Br)cc(C(F)(C(F)(F)F)C(F)(F)F)cc2C(F)(F)F)c(F)c1NC(=O)c1ccc(Cl)nc1 [1-1968, N-(3-(2-bromo-4-(perfluoropropan-2-yl)-6-(trifluoromethyl)phenylcarbamoyl)-6-cyano-2-fluorophenyl)-6-chloronicotinamide]
≥ 70%: pest or weed control at 1 ppm (Plutella xylostella) | pest or weed control at 100 ppm (Musca domestica) | pest or weed control at 10 ppm (Spodoptera litura)

O=C(Nc1c(Br)cc(C(F)(C(F)(F)F)C(F)(F)F)cc1C(F)(F)F)c1cccc(NC(=O)c2ccccc2Cl)c1 [6-272]
≥ 70%: pest or weed control at 1 ppm (Plutella xylostella) | pest or weed control at 100 ppm (Musca domestica) | pest or weed control at 1 ppm (Spodoptera litura)

O=C(Nc1c(Br)cc(C(F)(C(F)(F)F)C(F)(F)F)cc1C(F)(F)F)c1cccc(NC(=O)c2ccc(F)cc2Cl)c1 [6-293]
≥ 70%: pest or weed control at 1 ppm (Plutella xylostella) | pest or weed control at 100 ppm (Musca domestica) | pest or weed control at 1 ppm (Spodoptera litura)

O=C(Nc1c(I)cc(C(F)(C(F)(F)F)C(F)(F)F)cc1C(F)(F)F)c1cccc(NC(=O)c2ccccc2Cl)c1 [6-428]
≥ 70%: pest or weed control at 1 ppm (Plutella xylostella) | pest or weed control at 100 ppm (Musca domestica) | pest or weed control at 1 ppm (Spodoptera litura)

O=C(Nc1c(I)cc(C(F)(C(F)(F)F)C(F)(F)F)cc1C(F)(F)F)c1cccc(NC(=O)c2cc(F)c(F)cc2Cl)c1 [6-450]
≥ 70%: pest or weed control at 1 ppm (Plutella xylostella) | pest or weed control at 100 ppm (Musca domestica) | pest or weed control at 1 ppm (Spodoptera litura)

O=C(Nc1c(I)cc(C(F)(C(F)(F)F)C(F)(F)F)cc1C(F)(F)F)c1cccc(NC(=O)c2ccc(Cl)cc2Br)c1 [6-452]
≥ 70%: pest or weed control at 10 ppm (Plutella xylostella) | pest or weed control at 100 ppm (Musca domestica) | pest or weed control at 1 ppm (Spodoptera litura)

O=C(Nc1c(I)cc(C(F)(C(F)(F)F)C(F)(F)F)cc1C(F)(F)F)c1cccc(NC(=O)c2ccc(F)cc2Br)c1 [6-453]
≥ 70%: pest or weed control at 1 ppm (Plutella xylostella) | pest or weed control at 100 ppm (Musca domestica) | pest or weed control at 1 ppm (Spodoptera litura)

O=C(Nc1c(I)cc(C(F)(C(F)(F)F)C(F)(F)C(F)(F)F)cc1I)c1cccc(NC(=O)c2c(F)cccc2F)c1F (stereo not drawn) [6-1360]
≥ 70%: pest or weed control at 100 ppm (Laodelphax striatellus) | pest or weed control at 1 ppm (Plutella xylostella) | pest or weed control at 100 ppm (Musca domestica) | pest or weed control at 1 ppm (Spodoptera litura)

O=C(Nc1cccc(C(=O)Nc2c(I)cc(C(F)(C(F)(F)F)C(F)(F)C(F)(F)F)cc2I)c1F)c1cccnc1Cl (stereo not drawn) [6-1374]
≥ 70%: pest or weed control at 100 ppm (Laodelphax striatellus) | pest or weed control at 1 ppm (Plutella xylostella) | pest or weed control at 100 ppm (Musca domestica) | pest or weed control at 1 ppm (Spodoptera litura)

O=C(Nc1cccc(C(=O)Nc2c(I)cc(C(F)(C(F)(F)F)C(F)(F)F)cc2C(F)(F)F)c1F)c1ccccc1Cl [6-1734]
≥ 70%: pest or weed control at 100 ppm (Laodelphax striatellus) | pest or weed control at 1 ppm (Plutella xylostella) | pest or weed control at 100 ppm (Musca domestica) | pest or weed control at 1 ppm (Spodoptera litura)

O=C(Nc1cccc(C(=O)Nc2c(I)cc(C(F)(C(F)(F)F)C(F)(F)C(F)(F)F)cc2C(F)(F)F)c1F)c1cccc(F)c1 (stereo not drawn) [6-1810]
≥ 70%: pest or weed control at 100 ppm (Laodelphax striatellus) | pest or weed control at 1 ppm (Plutella xylostella) | pest or weed control at 100 ppm (Musca domestica) | pest or weed control at 1 ppm (Spodoptera litura)

CN(C(=O)c1ccccc1F)c1cccc(C(=O)Nc2c(Br)cc(C(F)(C(F)(F)F)C(F)(F)C(F)(F)F)cc2Br)c1 (stereo not drawn) [7-39]
≥ 70%: pest or weed control at 1 ppm (Plutella xylostella) | pest or weed control at 100 ppm (Musca domestica) | pest or weed control at 1 ppm (Spodoptera litura)

CN(C(=O)c1ccccc1)c1cccc(C(=O)Nc2c(Br)cc(C(F)(C(F)(F)F)C(F)(F)C(F)(F)F)cc2C(F)(F)F)c1 (stereo not drawn) [7-346]
≥ 70%: pest or weed control at 100 ppm (Laodelphax striatellus) | pest or weed control at 1 ppm (Plutella xylostella) | pest or weed control at 100 ppm (Musca domestica) | pest or weed control at 1 ppm (Spodoptera litura)

CN(C(=O)c1c(F)cccc1F)c1cccc(C(=O)Nc2c(Br)cc(C(F)(C(F)(F)F)C(F)(F)C(F)(F)F)cc2C(F)(F)F)c1 (stereo not drawn) [7-368]
≥ 70%: pest or weed control at 100 ppm (Laodelphax striatellus) | pest or weed control at 1 ppm (Plutella xylostella) | pest or weed control at 100 ppm (Musca domestica) | pest or weed control at 1 ppm (Spodoptera litura)

CN(C(=O)c1ccccc1Cl)c1cccc(C(=O)Nc2c(I)cc(C(F)(C(F)(F)F)C(F)(F)F)cc2C(F)(F)F)c1 [7-428]
≥ 70%: pest or weed control at 1 ppm (Plutella xylostella) | pest or weed control at 100 ppm (Musca domestica) | pest or weed control at 1 ppm (Spodoptera litura)

CN(C(=O)c1ccc(F)cc1Cl)c1cccc(C(=O)Nc2c(I)cc(C(F)(C(F)(F)F)C(F)(F)F)cc2C(F)(F)F)c1 [7-449]
≥ 70%: pest or weed control at 1 ppm (Plutella xylostella) | pest or weed control at 100 ppm (Musca domestica) | pest or weed control at 1 ppm (Spodoptera litura)

CN(C(=O)c1cccc(F)c1)c1cccc(C(=O)Nc2c(I)cc(C(F)(C(F)(F)F)C(F)(F)C(F)(F)F)cc2I)c1F (stereo not drawn) [7-1340]
≥ 70%: pest or weed control at 100 ppm (Laodelphax striatellus) | pest or weed control at 1 ppm (Plutella xylostella) | pest or weed control at 100 ppm (Musca domestica) | pest or weed control at 1 ppm (Spodoptera litura)

CN(C(=O)c1c(F)cccc1F)c1cccc(C(=O)Nc2c(I)cc(C(F)(C(F)(F)F)C(F)(F)C(F)(F)F)cc2I)c1F (stereo not drawn) [7-1360]
≥ 70%: pest or weed control at 100 ppm (Laodelphax striatellus) | pest or weed control at 1 ppm (Plutella xylostella) | pest or weed control at 100 ppm (Musca domestica) | pest or weed control at 1 ppm (Spodoptera litura)

CN(C(=O)c1ccccc1)c1cccc(C(=O)Nc2c(Cl)cc(C(F)(C(F)(F)F)C(F)(F)F)cc2C(F)(F)F)c1F [7-1417]
≥ 70%: pest or weed control at 100 ppm (Laodelphax striatellus) | pest or weed control at 1 ppm (Plutella xylostella) | pest or weed control at 100 ppm (Musca domestica) | pest or weed control at 1 ppm (Spodoptera litura)

CN(C(=O)c1ccc(F)cc1)c1cccc(C(=O)Nc2c(Br)cc(C(F)(C(F)(F)F)C(F)(F)C(F)(F)F)cc2Br)c1 (stereo not drawn) [7-5907]
≥ 70%: pest or weed control at 100 ppm (Laodelphax striatellus) | pest or weed control at 1 ppm (Plutella xylostella) | pest or weed control at 1 ppm (Spodoptera litura)

CN(C(=O)c1cncnc1)c1cccc(C(=O)Nc2c(I)cc(C(F)(C(F)(F)F)C(F)(F)F)cc2C(F)(F)F)c1 [7-5909]
≥ 70%: pest or weed control at 100 ppm (Laodelphax striatellus) | pest or weed control at 1 ppm (Plutella xylostella) | pest or weed control at 10 ppm (Spodoptera litura)

CN(C(=O)c1cccnc1Cl)c1cccc(C(=O)Nc2c(Br)cc(C(F)(F)C(F)(F)F)cc2C(F)(F)F)c1 [7-5912]
≥ 70%: pest or weed control at 100 ppm (Laodelphax striatellus) | pest or weed control at 10 ppm (Plutella xylostella) | pest or weed control at 10 ppm (Spodoptera litura)

CN(C(=O)c1cccc(NC(=O)c2ccc(C#N)cc2)c1)c1c(Br)cc(C(F)(C(F)(F)F)C(F)(F)F)cc1C(F)(F)F [8-289, N-(2-bromo-4-(perfluoropropan-2-yl)-6-(trifluoromethyl)phenyl)-3-(4-cyanobenzamide)-N-methylbenzamide]
≥ 70%: pest or weed control at 100 ppm (Laodelphax striatellus) | pest or weed control at 1 ppm (Plutella xylostella) | pest or weed control at 1 ppm (Spodoptera litura)

CN(C(=O)c1cccc(NC(=O)c2cccnc2Cl)c1)c1c(Br)cc(C(F)(C(F)(F)F)C(F)(F)F)cc1C(F)(F)F [8-304]
≥ 70%: pest or weed control at 100 ppm (Laodelphax striatellus) | pest or weed control at 1 ppm (Plutella xylostella) | pest or weed control at 1 ppm (Spodoptera litura)

CN(C(=O)c1cccc(NC(=O)c2cccnc2Cl)c1)c1c(C(F)(F)F)cc(C(F)(C(F)(F)F)C(F)(F)F)cc1C(F)(F)F [8-840]
≥ 70%: pest or weed control at 100 ppm (Laodelphax striatellus) | pest or weed control at 10 ppm (Plutella xylostella) | pest or weed control at 1 ppm (Spodoptera litura)

CN(C(=O)c1ccccc1)c1cccc(C(=O)N(C)c2c(Br)cc(C(F)(C(F)(F)F)C(F)(F)F)cc2C(F)(F)F)c1 [9-270]
≥ 70%: pest or weed control at 100 ppm (Laodelphax striatellus) | pest or weed control at 1 ppm (Plutella xylostella) | pest or weed control at 1 ppm (Spodoptera litura)

CN(C(=O)c1cccc(C#N)c1)c1cccc(C(=O)N(C)c2c(Br)cc(C(F)(C(F)(F)F)C(F)(F)F)cc2C(F)(F)F)c1 [9-290]
≥ 70%: pest or weed control at 100 ppm (Laodelphax striatellus) | pest or weed control at 1 ppm (Plutella xylostella) | pest or weed control at 1 ppm (Spodoptera litura)

CN(C(=O)c1ccc(C#N)cc1)c1cccc(C(=O)N(C)c2c(Br)cc(C(F)(C(F)(F)F)C(F)(F)F)cc2C(F)(F)F)c1 [9-291]
≥ 70%: pest or weed control at 100 ppm (Laodelphax striatellus) | pest or weed control at 1 ppm (Plutella xylostella) | pest or weed control at 1 ppm (Spodoptera litura)

CN(C(=O)c1cccnc1Cl)c1cccc(C(=O)N(C)c2c(Br)cc(C(F)(C(F)(F)F)C(F)(F)F)cc2C(F)(F)F)c1 [9-306]
≥ 70%: pest or weed control at 100 ppm (Laodelphax striatellus) | pest or weed control at 1 ppm (Plutella xylostella) | pest or weed control at 1 ppm (Spodoptera litura)

O=C(Nc1cccc(C(=O)Nc2c(Br)cc(C(F)(C(F)(F)F)C(F)(F)F)cc2C(F)(F)F)c1F)OCC(Cl)(Cl)Cl [11-777]
≥ 70%: pest or weed control at 1 ppm (Plutella xylostella) | pest or weed control at 100 ppm (Musca domestica) | pest or weed control at 1 ppm (Spodoptera litura)

O=C(Nc1cccc(C(=O)Nc2c(I)cc(C(F)(C(F)(F)F)C(F)(F)F)cc2C(F)(F)F)c1F)OCC(Cl)(Cl)Cl [11-835]
≥ 70%: pest or weed control at 1 ppm (Plutella xylostella) | pest or weed control at 100 ppm (Musca domestica) | pest or weed control at 1 ppm (Spodoptera litura)

CN(C(=O)OCC(Cl)(Cl)Cl)c1cccc(C(=O)Nc2c(Br)cc(C(F)(C(F)(F)F)C(F)(F)F)cc2C(F)(F)F)c1F [12-777]
≥ 70%: pest or weed control at 1 ppm (Plutella xylostella) | pest or weed control at 100 ppm (Musca domestica) | pest or weed control at 1 ppm (Spodoptera litura)

CN(C(=O)c1ccccc1)c1cccc(C(=O)Nc2c(Br)cc(C(F)(C(F)(F)F)C(F)(F)F)cc2C(F)(F)F)n1 [17-1103, N-(2-bromo-4-(perfluoropropan-2-yl)-6-(trifluoromethyl)phenyl)-6-(N-methylbenzamide)picolinamide]
≥ 70%: pest or weed control at 10 ppm (Plutella xylostella) | pest or weed control at 100 ppm (Musca domestica) | pest or weed control at 10 ppm (Spodoptera litura)

CN(C(=O)c1ccccc1)c1nc(C(=O)Nc2c(Br)cc(C(F)(C(F)(F)F)C(F)(F)F)cc2C(F)(F)F)cs1 [27-627]
≥ 70%: pest or weed control at 10 ppm (Plutella xylostella) | pest or weed control at 100 ppm (Musca domestica) | pest or weed control at 1 ppm (Spodoptera litura)
